The results in this text go back to patent US20100222421A1, “Usage of Baicalein in the Preparation of a Pharmaceutical Composition for the Treatment of Traumatic Brain Injury” (National Defense Medical Center, priority 2009, published 2010).

Data set [1] relates to IL-1β mRNA. The data set is described as follows: Real-time quantitative RT-PCR, IL-1β mRNA after CCI injury. Type of data set: in vivo, rat. The note with it: single-dose 30 mg kg^-1 i.p.; ipsilateral cortex, 6 h after injury; P<0.01. Here is the method: A previously described CCI injury procedure was utilized (Chen et al., 2003). Male Sprague-Dawley rats, which have body weight of 250-300 g, were anaesthetized with sodium pentobarbital (i.p.; 50 mgkg^−1; Rhone Merieux, Harlow, UK) and placed in a stereotaxic frame. A 5-mm craniotomy was performed over the left parietal cortex, centered on the coronal suture and 3 mm lateral to the sagittal suture. Considerable care was taken to avoid injury to the underlying dura. Injury was made using a pneumatic piston with a rounded metal tip (2.5 mm diameter) that was angled 22.5° C. to the vertical so that the tip was perpendicular with the brain surface at the centre of the craniotomy. A velocity of 4 ms^−1 and a deformation depth 2 mm below the dura were used. […] Body temperature was monitored throughout the surgery by a rectal probe; temperature was maintained at 37.0±0.5° C. using a heated pad. […] Testing after injury was as follows: (1) real-time quantitative RT-PCR analysis for TNF-α, IL-1β and IL-6 mRNA expression at 6 h post-injury (n=7 for each group); (2) FluoroJade B (FJB) staining, TNF-α, IL-1β and IL-6 immunohistochemistry, as well as ELISA at 24 h post-injury to assess degenerative neurons and to determine cytokine expression (n=7 for each group). […] Approximately 50 mg tissue was collected from the ipsilateral (injured) hemisphere and processed for real-time quantitative RT-PCR. […]

The nature of data set [2]: Body weight after CCI injury. It counts as in vivo, rat. Particulars: CCI-injured rats, 30 mg kg^-1 i.p.; P=0.8. The method, then:
A previously described CCI injury procedure was utilized (Chen et al., 2003). Male Sprague-Dawley rats, which have body weight of 250-300 g, were anaesthetized with sodium pentobarbital (i.p.; 50 mgkg^−1; Rhone Merieux, Harlow, UK) and placed in a stereotaxic frame. A 5-mm craniotomy was performed over the left parietal cortex, centered on the coronal suture and 3 mm lateral to the sagittal suture. Considerable care was taken to avoid injury to the underlying dura. Injury was made using a pneumatic piston with a rounded metal tip (2.5 mm diameter) that was angled 22.5° C. to the vertical so that the tip was perpendicular with the brain surface at the centre of the craniotomy. A velocity of 4 ms^−1 and a deformation depth 2 mm below the dura were used. The bone flap was immediately replaced and sealed, and the scalp was closed with sutures. Body temperature was monitored throughout the surgery by a rectal probe; temperature was maintained at 37.0±0.5° C. using a heated pad. Rats were placed in a heated cage to maintain body temperature, while recovering from anaesthesia.
Baicalein (30 mg kg^−1) dissolved in 10% dimethyl sulphoxide (0.25-0.3 mL) or a corresponding volume of vehicle (10% dimethyl sulphoxide) was administered i.p. immediately following injury or daily for 4 days (immediately, 25, 49 and 73 h) after injury. […]

For `O=c1cc(-c2ccccc2)oc2cc(O)c(O)c(O)c12` [baicalein], in data set [1], the “IL-1β mRNA level, % of level in vehicle-treated injured rats” value is 63%. Further, the “body weight, baicalein versus vehicle” value in data set [2] is on record as “no significant difference”.
